Experimental data as given in US20230200390A1, “SELECTIVE HERBICIDES BASED ON SUBSTITUTED ISOXAZOLIN CARBOXAMIDES AND MEFENPYR-DIETHYL” (BAYER AKTIENGESELLSCHAFT, priority 2020, published 2023).

Legend:
Assay type in all cases: in vivo
[1] = tested on: spring barley, HORVS Montoya; assay: Tank-mix; post-emergence: crop damage by herbicide with/without safener mefenpyr-diethyl
Description: (§1) Seeds of crops (spring wheat, TRZAS; spring barley, HORVS; maize, ZEAMA) were placed in sandy loam soil in peat pots, covered with soil and cultivated in a greenhouse under good growth conditions. Two to three weeks after sowing, the test plants were treated at the 1 to 3-leaf stage. The herbicide/safener active compound combinations according to the invention, formulated as wettable powders or emulsion concentrates, and, in parallel tests, the correspondingly formulated individual active compounds were sprayed onto the green parts of the plants in various dosages using an amount of water of 300 l/ha (converted).
(§2) The pots were returned under good growing conditions in a glasshouse and a visual assessment of herbicidal effects was made at intervals from 1 to 3 weeks after herbicide application (DAT=days after treatment). Assessment was on a percentage basis in comparison with untreated control plants (0%=no injury, 100%=complete kill).

[2] = tested on: spring wheat, TRZAS Triso; assay: as above
Description: as §1, §2

[3] = tested on: spring barley, HORVS Montoya; assay: Seed treatment with safener; post-emergence herbicide, crop damage; conditions: for HER effect + SAF / Reduction [%] / Reduction [Difference]: mefenpyr-diethyl 0.5 g a.i./kg seed
From the text: (§3) For safener seed treatment trials, sufficient seed amounts of the respective crops (spring wheat (TRZAS); spring barley (HORVS)) were weighed into screw cap glass bottles with a minimum volume trice of the seeds.
(§4) As a first step, specified safeners formulated as wettable powder (WP) or wettable granules (WG) were weighed out for the required dosages (g a.i./kg seed), corresponding to the seed amounts. The safener amounts were mixed with a coloured slurry blind formulation type, prediluted with milk at 3.5% fat rate (25 mgs slurry formulation plus 2 ml milk per 10 grams of seed). A tube roller was used for coating. The solutions were gradually pipetted each on the rotating seeds followed by coating for min. 3 hours until all liquid had been soaked up by the seeds. Thereafter, the coated seeds were put flat on open trays for drying over night at room temperature.
(§5) Treated seeds were then placed into pots (7 cm diameter) on the surface of sandy loam, pressed down, flat covered with additional soil and finally covered with sandy soil, also pressed down, watered, and kept under good growth conditions in a greenhouse, until the plants had reached 2-leaf-stage (BBCH 12).
(§6) At that stage, post-emergence application of the specified herbicides was done on:
(§7) a) pot sets containing plants with safener-coated seeds as described above,
(§8) b) as a reference, pot sets of plants without seed treatment.
(§9) The herbicides were formulated as wettable powder (WP). Equivalent to the spray area, compound amounts were weighed out and diluted related to the water application rate (300 l/ha) to an aqueous suspension plus additive (1 l/ha MERO). Dosage related equivalents were conventionally sprayed on trays with the potted plants.
(§10) After application, the test plants were kept under good growth conditions in a greenhouse.
(§11) Assessment timings were 10 and 21 days after treatment (DAT) with the herbicide, by visual scoring of the crop damage in % (comparison of untreated with treated plants, either sprayed only with herbicide or with herbicide on plants with treated seeds).

[4] = tested on: spring wheat, TRZAS Triso; assay: as above; conditions: for HER effect + SAF [%] (crop damage) / Reduction [%] / Reduction [Difference]: mefenpyr-diethyl 0.5 g a.i./kg seed; for HER effect [%] (crop damage, herbicide without safener): no safener
From the text: as §3, §4, §5, §6, §7, §8, §9, §10, §11

[5] = HER 6 g a.i./ha + mefenpyr-diethyl 50 g a.i./ha, 10 DAT
[6] = HER 24 g a.i./ha + mefenpyr-diethyl 100 g a.i./ha, 10 DAT
[7] = herbicide alone 6 g a.i./ha, 10 DAT
[8] = herbicide alone 24 g a.i./ha, 10 DAT
[9] = HER 24 g a.i./ha post-emergence, 10 DAT
[10] = HER 1.5 g a.i./ha + mefenpyr-diethyl 50 g a.i./ha, 21 DAT
[11] = HER 2 g a.i./ha + mefenpyr-diethyl 50 g a.i./ha, 21 DAT
[12] = HER 0.5 g a.i./ha post-emergence, 21 DAT
[13] = HER 2 g a.i./ha post-emergence, 21 DAT
[14] = HER 8 g a.i./ha post-emergence, 21 DAT
[15] = herbicide alone 8 g a.i./ha post-emergence, 21 DAT
[16] = HER 8 g a.i./ha + mefenpyr-diethyl 50 g a.i./ha, 21 DAT
[17] = HER 32 g a.i./ha + mefenpyr-diethyl 100 g a.i./ha, 21 DAT
[18] = HER 8 g a.i./ha + mefenpyr-diethyl 50 g a.i./ha, 10 DAT
[19] = HER 32 g a.i./ha + mefenpyr-diethyl 100 g a.i./ha, 10 DAT
[20] = HER 32 g a.i./ha post-emergence, 21 DAT
[21] = HER 1 g a.i./ha + mefenpyr-diethyl 50 g a.i./ha, 10 DAT
[22] = HER 1 g a.i./ha + mefenpyr-diethyl 50 g a.i./ha, 21 DAT
[23] = HER 4 g a.i./ha post-emergence, 21 DAT
[24] = HER 16 g a.i./ha post-emergence, 21 DAT

CC1(C(=O)NC2COC(C(=O)OCc3ccccc3)C2)CC(c2cccc(F)c2)=NO1 (mixture of isomers) [Example 1.79]
HER effect + SAF [1, 5]: 0% | Reduction [%] [1, 5]: 100% | Reduction [Difference] [1, 5]: 20 | HER effect + SAF [1, 6]: 0% | Reduction [%] [1, 6]: 100% | Reduction [Difference] [1, 6]: 70 | HER effect [1, 7]: 20% | HER effect [1, 8]: 70% | HER effect + SAF [2, 5]: 0% | Reduction [%] [2, 5]: 100% | Reduction [Difference] [2, 5]: 30 | HER effect + SAF [2, 6]: 10% | Reduction [%] [2, 6]: 80% | Reduction [Difference] [2, 6]: 40 | HER effect [2, 7]: 30% | HER effect [2, 8]: 50% | HER effect + SAF [3, 9]: 40% | Reduction [%] [3, 9]: 43% | Reduction [Difference] [3, 9]: 30 | HER effect ([3]; herbicide alone 24 g a.i./ha post-emergence, 10 DAT): 70% | HER effect + SAF [%] (crop damage) ([4]; 10 DAT, HER dose 24 g a.i./ha): 30% | Reduction [%] ([4]; 10 DAT, HER dose 24 g a.i./ha): 40% | Reduction [Difference] ([4]; 10 DAT, HER dose 24 g a.i./ha): 20 | HER effect [%] (crop damage, herbicide without safener) ([4]; 10 DAT, HER dose 24 g a.i./ha): 50%

CC(C)OC(=O)C1CC(NC(=O)C2(C(C)(F)F)CC(c3cc(F)cc(F)c3)=NO2)CO1 (mixture of isomers) [Example 1.88]
HER effect + SAF [1, 10]: 10% | Reduction [%] [1, 10]: 75% | Reduction [Difference] [1, 10]: 30 | HER effect ([1]; herbicide alone 1.5 g a.i./ha, 21 DAT): 40% | HER effect + SAF [2, 11]: 30% | Reduction [%] [2, 11]: 57% | Reduction [Difference] [2, 11]: 40 | HER effect ([2]; herbicide alone 2 g a.i./ha, 21 DAT): 70% | HER effect + SAF [3, 12]: 0% | Reduction [%] [3, 12]: 100% | Reduction [Difference] [3, 12]: 20 | HER effect + SAF [3, 13]: 10% | Reduction [%] [3, 13]: 80% | Reduction [Difference] [3, 13]: 40 | HER effect + SAF [3, 14]: 20% | Reduction [%] [3, 14]: 76% | Reduction [Difference] [3, 14]: 65 | HER effect ([3]; herbicide alone 0.5 g a.i./ha post-emergence, 21 DAT): 20% | HER effect ([3]; herbicide alone 2 g a.i./ha post-emergence, 21 DAT): 50% | HER effect [3, 15]: 85% | HER effect + SAF [%] (crop damage) ([4]; 21 DAT, HER dose 2 g a.i./ha): 10% | Reduction [%] ([4]; 21 DAT, HER dose 2 g a.i./ha): 86% | Reduction [Difference] ([4]; 21 DAT, HER dose 2 g a.i./ha): 60 | HER effect [%] (crop damage, herbicide without safener) ([4]; 21 DAT, HER dose 2 g a.i./ha): 70% | HER effect + SAF [%] (crop damage) ([4]; 21 DAT, HER dose 8 g a.i./ha): 20% | Reduction [%] ([4]; 21 DAT, HER dose 8 g a.i./ha): 76% | Reduction [Difference] ([4]; 21 DAT, HER dose 8 g a.i./ha): 65 | HER effect [%] (crop damage, herbicide without safener) ([4]; 21 DAT, HER dose 8 g a.i./ha): 85%

C=CC1(C(=O)NC2COC(C(=O)OC)C2)CC(c2cc(C)cc(F)c2)=NO1 (mixture of isomers) [Example 1.71]
HER effect + SAF [1, 16]: 20% | Reduction [%] [1, 16]: 60% | Reduction [Difference] [1, 16]: 30 | HER effect + SAF [1, 17]: 50% | Reduction [%] [1, 17]: 29% | Reduction [Difference] [1, 17]: 20 | HER effect ([1]; herbicide alone 8 g a.i./ha, 21 DAT): 50% | HER effect ([1]; herbicide alone 32 g a.i./ha, 21 DAT): 70% | HER effect + SAF [2, 18]: 0% | Reduction [%] [2, 18]: 100% | Reduction [Difference] [2, 18]: 50 | HER effect + SAF [2, 19]: 20% | Reduction [%] [2, 19]: 76% | Reduction [Difference] [2, 19]: 65 | HER effect ([2]; herbicide alone 8 g a.i./ha, 10 DAT): 50% | HER effect ([2]; herbicide alone 32 g a.i./ha, 10 DAT): 85% | HER effect + SAF [3, 14]: 30% | Reduction [%] [3, 14]: 40% | Reduction [Difference] [3, 14]: 20 | HER effect + SAF [3, 20]: 40% | Reduction [%] [3, 20]: 43% | Reduction [Difference] [3, 20]: 30 | HER effect [3, 15]: 50% | HER effect ([3]; herbicide alone 32 g a.i./ha post-emergence, 21 DAT): 70% | HER effect + SAF [%] (crop damage) ([4]; 10 DAT, HER dose 8 g a.i./ha): 0% | Reduction [%] ([4]; 10 DAT, HER dose 8 g a.i./ha): 100% | Reduction [Difference] ([4]; 10 DAT, HER dose 8 g a.i./ha): 50 | HER effect [%] (crop damage, herbicide without safener) ([4]; 10 DAT, HER dose 8 g a.i./ha): 50% | HER effect + SAF [%] (crop damage) ([4]; 10 DAT, HER dose 32 g a.i./ha): 0% | Reduction [%] ([4]; 10 DAT, HER dose 32 g a.i./ha): 100% | Reduction [Difference] ([4]; 10 DAT, HER dose 32 g a.i./ha): 85 | HER effect [%] (crop damage, herbicide without safener) ([4]; 10 DAT, HER dose 32 g a.i./ha): 85%

CC1(C(=O)NC2C=CC(C(=O)O)C2)CC(c2cc(F)cc(F)c2)=NO1 (stereo not shown) [Example 1.36]
HER effect + SAF [1, 21]: 60% | Reduction [%] [1, 21]: 25% | Reduction [Difference] [1, 21]: 20 | HER effect ([1]; herbicide alone 1 g a.i./ha, 10 DAT): 80% | HER effect + SAF [2, 22]: 20% | Reduction [%] [2, 22]: 76% | Reduction [Difference] [2, 22]: 65 | HER effect ([2]; herbicide alone 1 g a.i./ha, 21 DAT): 85% | HER effect + SAF [3, 23]: 50% | Reduction [%] [3, 23]: 46% | Reduction [Difference] [3, 23]: 43 | HER effect + SAF [3, 24]: 70% | Reduction [%] [3, 24]: 26% | Reduction [Difference] [3, 24]: 25 | HER effect ([3]; herbicide alone 4 g a.i./ha post-emergence, 21 DAT): 93% | HER effect ([3]; herbicide alone 16 g a.i./ha post-emergence, 21 DAT): 95% | HER effect + SAF [%] (crop damage) ([4]; 21 DAT, HER dose 1 g a.i./ha): 0% | Reduction [%] ([4]; 21 DAT, HER dose 1 g a.i./ha): 100% | Reduction [Difference] ([4]; 21 DAT, HER dose 1 g a.i./ha): 85 | HER effect [%] (crop damage, herbicide without safener) ([4]; 21 DAT, HER dose 1 g a.i./ha): 85% | HER effect + SAF [%] (crop damage) ([4]; 21 DAT, HER dose 4 g a.i./ha): 30% | Reduction [%] ([4]; 21 DAT, HER dose 4 g a.i./ha): 68% | Reduction [Difference] ([4]; 21 DAT, HER dose 4 g a.i./ha): 63 | HER effect [%] (crop damage, herbicide without safener) ([4]; 21 DAT, HER dose 4 g a.i./ha): 93% | HER effect + SAF [%] (crop damage) ([4]; 21 DAT, HER dose 16 g a.i./ha): 50% | Reduction [%] ([4]; 21 DAT, HER dose 16 g a.i./ha): 47% | Reduction [Difference] ([4]; 21 DAT, HER dose 16 g a.i./ha): 45 | HER effect [%] (crop damage, herbicide without safener) ([4]; 21 DAT, HER dose 16 g a.i./ha): 95%
